Data set [1] relates to yeast mutated to knock-out the ERG2 gene. Description: Optical sodium and potassium ion sensor monitoring of yeast cells stimulated with a HERG inhibitor (HERG compatibility screen), ERG2 knock-out. As to conditions: FIG. 6. The text has this:
(§1) The sensors of the present invention are suited to many different types of assays, or for the detection of compounds. In one exemplary application, a model cell system is used to screen for HERG compatibility. HERG (human ether-a-go-go) channels are implicated in the abnormal heart rhythms associated with Long QT Syndrome. It is believed that many compounds can block these channels and cause prolongation of the beat cycle of the heart. This abnormal rhythm can cause arrhythmia and can even lead to death. Accordingly, it is important that all drugs, regardless of therapeutic target, be screened for HERG compatibility.
(§2) Much is known genetically about yeast, and gene knock-outs are commercially available, allowing for the screening of two types of yeast: the wild type (WT) containing the ERG2, and one mutated to knock-out the ERG2 gene.
(§3) This example utilizes two cell types and two types of sensors, providing four different data signals, and the approach can be extended to an arbitrary number of sensors and cell types. Similarly, tissue can be used instead of culture.

The test system of data set [2] is wild type (WT) yeast containing the ERG2. Kind of data set: Optical sodium and potassium ion sensor monitoring of yeast cells stimulated with a HERG inhibitor (HERG compatibility screen), wild type. As to conditions: FIG. 6.
Excerpt: as §1, §2, §3

Each structure is given as a SMILES string.

1 molecule from US7910065B2, “Reaction sensing in living cells” (The Charles Stark Draper Laboratory, Inc., priority 2005, dated 2011) can be followed below.

Take `O=C(CCCN1CCC(O)(c2ccc(Cl)cc2)CC1)c1ccc(F)cc1` [Haloperidol]: the “response in potassium upon stimulation of the cells” value in data set [1] (potassium sensor) is recorded as “no response”. Also, the “response in sodium upon stimulation of the cells” value in data set [1] (sodium sensor) is “no response”. Also, in data set [2] (potassium sensor), the “change in potassium upon stimulation of the cells” value is recorded as “a change is observed”. Besides, in data set [2] (sodium sensor), the “change in sodium upon stimulation of the cells” value was “a change is observed”.
